Experimental data: PMC7395068, “The evolution of strategies to minimise the risk of human drug-induced liver injury (DILI) in drug discovery and development” (Archives of Toxicology, 2020)
Read-outs that look alike come from different tables or passages of the source.

How the values were obtained:
[1] = Plasma free fraction (fu) and unbound Cmax (Cmax,u); type: in vitro ADME, human; details: unbound plasma Cmax
Procedure: The prediction of DILI severity was evaluated further using the 3D combined HCI assays using plasma-free fraction. The majority of fu values were obtained from literature, when unavailable in-house prediction was utilised. Unbound plasma Cmax concentrations (Cmax,u) were derived by multiplying total plasma Cmax with the corresponding free fraction (fu) for each compound.

[2] = cited from earlier work
[3] = tested on: HepG2 cells; details: cited from earlier work
[4] = tested on: HepG2 cells; details: cited from earlier work; remark: listed apart in the source
[5] = tested on: THLE or HepG2 cells, isolated mitochondria, BSEP; details: cited from earlier work
[6] = read-out: Human plasma Cmax; total plasma Cmax.tot, median of 9 literature references; cited from earlier work
[7] = plasma free fraction; cited from earlier work
[8] = cited from earlier work; remark: listed apart in the source
[9] = tested on: THLE-Null and THLE-3A4 cells; details: In vitro Assay; ref Gustafsson 2014; cited from earlier work
[10] = tested on: HepG2 cells, primary human hepatocytes; details: In vitro Assay; ref Garside 2014; cited from earlier work
[11] = tested on: Upcyte human hepatocytes; details: In vitro Assay; ref Tolosa 2019; cited from earlier work
[12] = tested on: rBsep; details: In vitro Assay; ref Dawson 2012; cited from earlier work
[13] = tested on: hLiMTs; assay: Combined HCI (HCS) and cellular ATP 3D assay in hLiMTs
[14] = tested on: HepaRG spheroids; assay: Combined HCI (HCS) and cellular ATP 3D assay in HepaRG spheroids
[15] = Modeled in vitro assays (cytotoxicity, mitochondrial dysfunction, BSEP), ref Aleo et al. 2019
[16] = Microtissue model structural based (HCI), combined HCS and ATP, MEC < 25 × Cmax.tot cut-off

## C[N+](C)(C)CC(=O)O [betaine, reference compound]
[1]
  Human plasma Cmax,u: 717.446 µM
[2]; LTKB DILIrank category, ref Chen et al. 2016
  DILI severity category (Chen et al. [2016]): No
[2]; human DILI classification, LTKB DILIrank, ref Chen et al. 2016
  DILI severity category (Chen 2016): No
[2]; human DILI severity, ref Chen et al.
  DILI severity category: No
[2]; ref Chen 2016
  DILI +VE (5-8), DILI -VE (-4): -VE
  DILI severity category: vNo-DILI-Concern
[3]; In vitro Assay, ref O'Brien 2006
  Structural based (HCI): +VE
[3]; Structural based (HCI), HepG2, ref O'Brien et al. 2006
  DILI in vitro assay prediction, O'Brien (2006): +VE (lowest HCI endpoint IC50 (or in the absence of dose–response < 100 µM) < 30 × total human plasma exposure levels (Cmax.tot))
[4]; In vitro Assay, ref Tolosa 2012
  Structural based (HCI): -VE
[4]; Structural based (HCI), HepG2, ref Tolosa et al. 2012
  DILI in vitro assay prediction, Tolosa (2012): -VE
[5]; In vitro Assay, ref Aleo 2019
  Partition Hybrid HRM Score: -VE
  Ro2 Hybrid HRM Score: -VE
[5]; [15]
  Partition Hybrid HRM Score ≥4, Aleo (2019): -VE
  Partition Hybrid HRM Score ≥8, Aleo (2019): -VE
  Rule of Two hybrid HRM Score ≥3, Aleo (2019): -VE
  Rule of Two hybrid HRM Score ≥8, Aleo (2019): -VE
[6]
  Cmax: 944 µM
[7]
  fu: 0.760
[8]; Chen et al. 2016 or literature alignment, ref Chen et al. 2016
  Assigned DILI category: 1
[8]; ref Aleo 2019
  In vivo DILI: -VE
[8]; ref Dawson 2012
  In vivo DILI: -VE
[8]; ref Garside 2014
  In vivo DILI: -VE
[8]; ref Gustafsson 2014
  In vivo DILI: -VE
[8]; ref O'Brien 2006
  In vivo DILI: -VE
[8]; ref Tolosa 2012
  In vivo DILI: -VE
[8]; ref Tolosa 2019
  In vivo DILI: -VE
[9]
  THLE-Null: -VE
  THLE-Null/3A4: -VE
[10]
  Cluster 1-6 +VE Assay: -VE
[11]
  Upcytes multi donor assay 14day data: -VE
[12]
  Inhibition of rBsep cutoff<1& cmax u>.2: -VE
  Inhibition of rBsep cutoff<3: -VE
[13]; [16]
  DILI prediction hLiMTs (HCS-MEC): -VE
[13]; hLiMTs, ATP endpoint, cut-off <25x Avg Cmax
  hLiMTs <25x Avg Cmax ATP: -ve
[13]; hLiMTs, ATP endpoint, cut-off <100x Avg Cmaxu
  hLiMTs <100x Avg Cmaxu ATP: -ve
[13]; hLiMTs, HCS endpoints, cut-off <25x Avg Cmax
  hLiMTs <25x Avg Cmax HCS: -ve
[13]; hLiMTs, HCS endpoints, cut-off <100x Avg Cmaxu
  hLiMTs <100x Avg Cmaxu HCS: -ve
[13]; hLiMTs, all endpoints (ATP and HCS), cut-off <25x Avg Cmax
  hLiMTs <25x Avg Cmax All: -ve
[13]; hLiMTs, all endpoints, Cmax max used
  hLiMTs Cmax max All: -ve
[13]; hLiMTs, all endpoints, Cmax min used
  hLiMTs Cmax min All: -ve
[13]; hLiMTs, all endpoints, cut-off <10 uM
  hLiMTs <10 uM All: -ve
[13]; hLiMTs, all endpoints, cut-off <100x Avg Cmaxu
  hLiMTs <100x Avg Cmaxu All: -ve
[14]; HepaRG, ATP endpoint, cut-off <25x Avg Cmax
  HepaRG <25x Avg Cmax ATP: -ve
[14]; HepaRG, ATP endpoint, cut-off <100x Avg Cmaxu
  HepaRG <100x Avg Cmaxu ATP: -ve
[14]; HepaRG, HCS endpoints, cut-off <25x Avg Cmax
  HepaRG <25x Avg Cmax HCS: -ve
[14]; HepaRG, HCS endpoints, cut-off <100x Avg Cmaxu
  HepaRG <100x Avg Cmaxu HCS: -ve
[14]; HepaRG, all endpoints (ATP and HCS), cut-off <25x Avg Cmax
  HepaRG <25x Avg Cmax All: -ve
[14]; HepaRG, all endpoints, Cmax max used
  HepaRG Cmax max All: -ve
[14]; HepaRG, all endpoints, Cmax min used
  HepaRG Cmax min All: -ve
[14]; HepaRG, all endpoints, cut-off <10 uM
  HepaRG <10 uM All: -ve
[14]; HepaRG, all endpoints, cut-off <100x Avg Cmaxu
  HepaRG <100x Avg Cmaxu All: -ve
[14]; [16]
  DILI prediction HepaRG spheroids (HCS-MEC): -VE
